Test results published in patent US20060110472A1, “Use of allicin as insect repellent and insecticide in agricultural crops” (priority 2002, published 2006).

Assays:
[1] = test system: fruit flies that attack the persimmon trees; experiment: Spraying of persimmon trees with allicin, repellent effect on fruit flies; assay type: in vivo, fruit fly; details: trees sprayed with water solution 0.1-0.2 g/l (0.5-1 mM) every second week, 12 weeks, 6 sessions, FIG. 2
Description: (§1) Persimmon trees (Oriental persimmon of the type “Fuyu”, 2.5-3 meters tall) in the Hasharon region, Israel, were sprayed with a water solution of allicin (0.1-0.2 g/l, 0.01-0.02% or 0.5-1 mM) every second week, during a 12-week period, for a total of 6 sessions. Spraying with allicin was started 2-3 weeks after persimmon fruit setting, when the fruits reached 1-2 cm in diameter. The spraying was performed in such a way as to wet the leaves and the fruits completely. No other insecticides or other treatments were used in parallel or at any point of the experiment. FIG. 2 is a photograph showing persimmon fruits from trees treated with allicin (left) and from untreated trees (right).

ants = experiment: Repellent effect of allicin on ants; assay type: in vivo
Description: Treatment of the locus of an ant colony with a water solution of allicin (1 mg/ml) prevented the ants from reentering the place for at least 3 days.

[2] = test system: Persimmon trees (Oriental persimmon of the type "Fuyu"); experiment: Damage to leaves of persimmon trees after spraying with allicin; assay type: in vivo; details: water solution 0.1-0.2 g/l, 6 sprayings over 12 weeks
Description: as §1

[3] = test system: hatched larvae of fruit fly; experiment: Lethality of hatched larvae on egg-laying plates with allicin; assay type: in vivo, Drosophila Melanogaster; details: allicin stock 1-2 mg/ml added to egg-laying plates, about 200 eggs per plate
Description: In an additional experiment, lethality of 80-90% of the hatched larvae produced in the second phase of the fly life cycle was caused by addition of allicin (stock 1-2 mg/ml) to egg-laying plates containing about 200 eggs per plate (not shown).

[4] = test system: Fruit flies, Drosophila Melanogaster; experiment: Egg laying of fruit flies on plates containing allicin (repellent activity); assay type: in vivo
Description: Fruit flies, Drosophila Melanogaster, were grown in a plastic container and allowed to lay eggs in laying bottles (6×4 cm) containing allicin (100 μl) in various concentrations (0-12 mM). Allicin was introduced to the egg-laying sites on a ring of Whatman (3 mm) paper placed at the periphery of the egg laying plate which was placed at the bottom of the bottle. A yeast paste (fly food) was applied in the middle of the plate. Female fruit flies (N=100) were introduced into the laying bottle and were allowed to lay eggs for 16 hours. At the end of the 16 hours, the number of eggs was counted in each plate. The total number of eggs laid by the flies was 1440. The repellent effect of allicin on the fruit fly was determined by measuring the number of laid eggs during the continuous exposure of the flies to the various concentrations of allicin. The results are shown in FIG. 1a as a percentage of laid eggs in the presence of each concentration of allicin in comparison with the number of eggs laid by flies in the absence of allicin (first column, left—100%). […] At the end of the 8 hours, the number of eggs was counted in each plate. […] The repellent effect of allicin on the fruit fly was determined by measuring the number of laid eggs in allicin-free plates for 8 hours after the 16-hour exposure of the flies to the various concentrations of allicin. […]

C=CCS[S+]([O-])CC=C (stereo not shown) [allicin, thio-2-propene-1-sulfinic acid S-allyl ester]
repellent effect on fruit flies, appearance of persimmon fruits [1]: repellent effect on fruit flies | crossing of a treated line in the floor by ants (ants; water solution of allicin 1 mg/ml on a line in the floor, even after the solution dried off): prevented the crossing of the line by ants | time ants were prevented from reentering the treated locus of the colony (ants; water solution of allicin 1 mg/ml on locus of an ant colony): at least 3 days | damage to leaves after spraying [2]: no damage | lethality of hatched larvae [3]: 80-90% | repellent activity, inhibition of egg laying by the flies (% of eggs laid vs no allicin) ([4]; 0-12 mM allicin (100 μl), 16 hours continuous exposure, FIG. 1a): dose-dependent | inhibition of capability of the flies to lay eggs on allicin-free plates after exposure ([4]; 8 hours on allicin-free plates after 16 hours exposure to 0-12 mM allicin, FIG. 1b): significant inhibition effect
